From patent publication US20180296537A1, “METHODS AND COMPOSITIONS FOR DIAGNOSING, TREATING, AND MONITORING TREATMENT OF SHANK3 DEFICIENCY ASSOCIATED DISORDERS” (Novartis AG, priority 2015, published 2018)

Test system: PMDS iPS-derived neurons
Assay: sEPSC recordings from iPS-derived PMDS neurons
Format: cell-based, human
From the text: Primary human dermal fibroblasts from neonatal (Invitrogen, Carlsbad, Calif.) and adults (University of Milano, Dr. Sala) were taken for reprogramming using the CytoTune-iPS reprogramming kit (Life Technologies, Carlsbad, Calif.) according to the standard protocol. Colonies with hallmark of pluripotent morphology were readily visible between days 17 and 20 after transduction. These were picked and subcloned multiple times on plates coated with Matrigel (BD Biosciences, San Jose, Calif.) in mTeSR medium until Sendai virus RNA could no longer be detected and the morphology looked stable. […] Karyotype analyses was performed by full-genome SNP analyses by Life&Brain Gmbh (Bonn). […] Neuronal precursors were differentiated from iPS cells by using a modified dual SMAD inhibition as described earlier (Chambers et al., 2009; Pecho-Vrieseling et al., 2014). Briefly, […] undifferentiated hiPSC were seeded in an ULA 96-well in 0.1 ml neural induction medium (20% knockout-serum replacement (Invitrogen), 0.1 mM MEM non-essential amino acids (Invitrogen), 0.1 mM 2-mercaptoethanol (Invitrogen), 75% […] (Invitrogen Gibco); Pen/Strep, 10 ng ml bhFGF (1:1,000, Invitrogen), 10 μM SB 431542 (1:1,000) (Tocris, Bristol, UK) and 1 μM LDN 193189 (1:10,000) (Stemgent) with 10 μM Rock inhibitor to prevent apoptosis (Calbiochem, Darmstadt, Germany). Two days later 0.1 ml of fresh induction media was added to the old one. The next day 30 embryoid bodies (EB) were transferred to a 35 mm matrigel dish with induction media. At day 10 EB's were cleaned to have only neuronal rosettes left. […]
Whole cell patch-clamp recordings were excluded if the access resistance exceeded 13 MΩ and changed more than 20% during the recordings. Data were recorded with a MultiClamp 700B (Molecular Devices) amplifier, filtered at 0.2 kHz, and digitised at 10 kHz. Data were acquired and analysed with Clampex 10.0, Clampfit 10.0 (Molecular Devices) and the Mini Analysis Program (Synaptosoft, Decatur, Ga.). […]

[1] = PMDS neurons, eight weeks in vitro, overnight treatment

CCN1/C(=C/C(C)=O)Sc2ccc(OC)cc21 [TG003, (Z)-1-(3-ethyl-5-methoxy-2,3-dihydrobenzothiazol-2-ylidene)propan-2-one]
frequency of spontaneous EPSCs (sEPSCs) [1]: completely rescued this impairment

CCOC(=O)C1=C(N)Oc2ccc(Cl)cc2C1C(C#N)C(=O)OCC (stereo not drawn) [SC79]
frequency of spontaneous EPSCs (sEPSCs) [1]: completely rescued this impairment
frequency of spontaneous EPSCs (sEPSCs) (neurons from second PMDS patient (PMDS-2)): restorative effect of SC79 was also observed
